Laboratory results taken from patent publication US9914730B2, “Azaquinazoline inhibitors of Atypical protein Kinase C” (Ignyta, Inc., priority 2012, dated 2018).

Experiments:
full-length human PKCι = target: T1, full-length human PKCι (Homo sapiens, UniProt P41743); experiment: PKCι IC50 IMAP assay, full-length PKCι at 150 μM ATP; format: biochemical; conditions: read-out: IC50 in IMAP assay against full length PKCi at 150 μM ATP
T1 construct: Recombinant, full-length human PKCι expressed in Sf21 insect cells is also commercially available; purchased; host or cells: Sf21 insect cells
T1 sequence (P41743 1-596): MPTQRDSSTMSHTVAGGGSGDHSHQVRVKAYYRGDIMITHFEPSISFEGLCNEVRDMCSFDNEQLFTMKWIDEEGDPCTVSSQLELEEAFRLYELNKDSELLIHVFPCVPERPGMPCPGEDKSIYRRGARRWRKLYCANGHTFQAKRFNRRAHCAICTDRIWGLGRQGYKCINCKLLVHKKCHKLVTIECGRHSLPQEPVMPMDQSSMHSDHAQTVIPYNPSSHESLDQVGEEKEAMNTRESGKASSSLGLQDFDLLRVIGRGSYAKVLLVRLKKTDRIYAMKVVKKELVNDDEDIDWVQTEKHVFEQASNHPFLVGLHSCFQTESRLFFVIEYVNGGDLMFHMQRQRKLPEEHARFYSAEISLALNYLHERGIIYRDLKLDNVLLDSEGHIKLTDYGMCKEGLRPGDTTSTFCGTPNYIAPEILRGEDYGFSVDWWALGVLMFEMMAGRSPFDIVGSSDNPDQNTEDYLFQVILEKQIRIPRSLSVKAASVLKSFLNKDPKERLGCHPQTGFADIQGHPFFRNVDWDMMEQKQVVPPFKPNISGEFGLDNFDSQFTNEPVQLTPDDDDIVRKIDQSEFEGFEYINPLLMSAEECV
Outline: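 Full-length hPKCι (Sf21) ~15 pM; 5FAM-peptide 100 nM; ATP 150 μM (5× KM^APP); tris pH7.5/MgCl2/EGTA/DTT/Triton, 4% DMSO; 60 min RT; IMAP stop, 2 h; FP 485/530 nm; IC50 from % inhibition curves.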

NSCLC cells = conditions: pharmacological inhibition of PKCι; literature (Regala et al.); cited from earlier work
follicular lymphoma = conditions: by targeting a PKCζ-MAPK-mTOR pathway; literature (Leseux et al.); cited from earlier work

Molecule	IC50 (full-length human PKCι)	melting point	growth of NSCLC cells in soft agar (NSCLC cells)	follicular lymphoma proliferation (follicular lymphoma)
COc1cncc2nc(-c3ccnc(Nc4ccccc4)c3)nc(N3CCCCC3)c12 [Example 459, [4-(5-Methoxy-4-piperidin-1-yl-pyrido[3,4-d]pyrimidin-2-yl)-pyridin-2-yl]-phenyl-amine]	10 to 40 µM	221 to 223 °C		
COc1cncc2nc(-c3ccnc(Nc4ccccc4)c3)nc(N3CCC(F)CC3)c12 [Example 462, {4-[4-(4-Fluoro-piperidin-1-yl)-5-methoxy-pyrido[3,4-d]pyrimidin-2-yl]-pyridin-2-yl}-phenyl-amine]	10 to 40 µM	202 to 205 °C		
c1ccc(Nc2cc(-c3nc(N4CCNCC4)c4c(C5CC5)cncc4n3)ccn2)cc1 [Example 481, [4-(5-Cyclopropyl-4-piperazin-1-yl-pyrido[3,4-d]pyrimidin-2-yl)-pyridin-2-yl]-phenyl-amine]		221 to 226 °C		
COc1cncc2nc(-c3ccnc(Nc4ccccc4)c3)nc(N3CCC(C#N)CC3)c12 [Example 461, 1-[5-Methoxy-2-(2-phenylamino-pyridin-4-yl)-pyrido[3,4-d]pyrimidin-4-yl]-piperidine-4-carbonitrile]	1 to 10 µM	242 to 244 °C		
COc1cncc2nc(-c3ccnc(Nc4ncccn4)c3)nc(N3CCNCC3)c12 [Example 423, [4-(5-Methoxy-4-piperazin-1-yl-pyrido[3,4-d]pyrimidin-2-yl)-pyridin-2-yl]-pyrimidin-2-yl-amine]	0.1 to 1 µM	200 to 203 °C		
COc1cncc2nc(-c3ccnc(Nc4ccccc4)c3)nc(N3CC[C@H](CO)C3)c12 [Example 466, {(S)-1-[5-Methoxy-2-(2-phenylamino-pyridin-4-yl)-pyrido[3,4-d]pyrimidin-4-yl]-pyrrolidin-3-yl}-methanol]	1 to 10 µM	210 to 211 °C		
O=C(O)CC([S-])C(=O)O.[Au+] (stereo not shown) [aurothiomalate]			blocks the growth	
Rituximab: "the anti-CD20 therapeutic antibody rituximab"				inhibits follicular lymphoma proliferation
COc1cncc2nc(-c3ccnc(Nc4ccccc4)c3)nc(N3CC[C@H](O)[C@H](O)C3)c12 (racemic) [Example 436, (±)-cis-1-[5-Methoxy-2-(2-phenylamino-pyridin-4-yl)-pyrido[3,4-d]pyrimidin-4-yl]-piperidine-3,4-diol]	0.1 to 1 µM	241 to 243 °C		
COc1cncc2nc(-c3ccnc(Nc4ccccc4)c3)nc(N3CC[C@@H](CO)C3)c12 [Example 465, {(R)-1-[5-Methoxy-2-(2-phenylamino-pyridin-4-yl)-pyrido[3,4-d]pyrimidin-4-yl]-pyrrolidin-3-yl}-methanol]	1 to 10 µM	208 to 209 °C		
Nc1cc(-c2nc(N3CCNCC3)c3c(C4CC4)cncc3n2)ccn1 [Example 582, 4-(5-Cyclopropyl-4-piperazin-1-yl-pyrido[3,4-d]pyrimidin-2-yl)-pyridin-2-ylamine]	< 0.1 µM			
c1cc(-c2nc(N3CCNCC3)c3c(C4CC4)cncc3n2)cc(Nc2cnn(C3CC3)c2)n1 [Example 794, [4-(5-Cyclopropyl-4-piperazin-1-yl-pyrido[3,4-d]pyrimidin-2-yl)-pyridin-2-yl]-(1-cyclopropyl-1H-pyrazol-4-yl)-amine]	< 0.1 µM			
FC(F)(F)C1(c2cc3c(-c4nc(N5CCNCC5)c5c(C6CC6)cncc5n4)ccnc3[nH]2)CC1 [Example 1238, 5-Cyclopropyl-4-piperazin-1-yl-2-[2-(1-trifluoromethyl-cyclopropyl)-1H-pyrrolo[2,3-b]pyridin-4-yl]-pyrido[3,4-d]pyrimidine]	< 0.1 µM			
COc1cncc2nc(N3CCOCC3)nc(N3CCN[C@@H](COc4ccccc4)C3)c12 [Example 1006, 5-Methoxy-2-morpholin-4-yl-4-((R)-3-phenoxymethyl-piperazin-1-yl)-pyrido[3,4-d]pyrimidine]	0.1 to 1 µM			

Continued, in another order:

IC50 (full-length human PKCι)	melting point	Molecule	growth of NSCLC cells in soft agar (NSCLC cells)	follicular lymphoma proliferation (follicular lymphoma)
< 0.1 µM	217 to 219 °C	c1cc(-c2nc(N3CCNCC3)c3c(C4CC4)cncc3n2)cc(Nc2ccc(N3CCOCC3)nc2)n1 [Example 475, [4-(5-Cyclopropyl-4-piperazin-1-yl-pyrido[3,4-d]pyrimidin-2-yl)-pyridin-2-yl]-(6-morpholin-4-yl-pyridin-3-yl)-amine]		
< 0.1 µM	226 to 228 °C	c1cncc(Nc2cc(-c3nc(N4CCNCC4)c4c(C5CC5)cncc4n3)ccn2)c1 [Example 476, [4-(5-Cyclopropyl-4-piperazin-1-yl-pyrido[3,4-d]pyrimidin-2-yl)-pyridin-2-yl]-pyridin-3-yl-amine]		
< 0.1 µM	206 to 208 °C	COc1cncc2nc(-c3ccnc(Nc4ccc(Cl)nc4)c3)nc(N3CCNCC3)c12 [Example 405, (6-Chloro-pyridin-3-yl)-[4-(5-methoxy-4-piperazin-1-yl-pyrido[3,4-d]pyrimidin-2-yl)-pyridin-2-yl]-amine]		
< 0.1 µM	189 to 191 °C	COc1cccc(Nc2cc(-c3nc(N4CCNCC4)c4c(OC)cncc4n3)ccn2)n1 [Example 448, [4-(5-Methoxy-4-piperazin-1-yl-pyrido[3,4-d]pyrimidin-2-yl)-pyridin-2-yl]-(6-methoxy-pyridin-2-yl)-amine]		
< 0.1 µM	214 to 220 °C	Cc1cc(N2CCOCC2)ccc1Nc1cc(-c2nc(N3CCNCC3)c3c(C4CC4)cncc3n2)ccn1 [Example 474, [4-(5-Cyclopropyl-4-piperazin-1-yl-pyrido[3,4-d]pyrimidin-2-yl)-pyridin-2-yl]-(2-methyl-4-morpholin-4-yl-phenyl)-amine]		
< 0.1 µM	200 to 203 °C	N#Cc1ccc(CC(=O)Nc2cc(-c3nc(N4CCNCC4)c4c(C5CC5)cncc4n3)ccn2)cc1 [Example 473, 2-(4-Cyano-phenyl)-N-[4-(5-cyclopropyl-4-piperazin-1-yl-pyrido[3,4-d]pyrimidin-2-yl)-pyridin-2-yl]-acetamide]		
< 0.1 µM		CC1(C)CN(c2nc(-c3ccnc(Nc4nc(F)c(F)cc4F)c3)nc3cncc(C4CC4)c23)CCN1 [Example 815, {4-[5-Cyclopropyl-4-(3,3-dimethyl-piperazin-1-yl)-pyrido[3,4-d]pyrimidin-2-yl]-pyridin-2-yl}-(3,5,6-trifluoro-pyridin-2-yl)-amine]		
